From patent US20020026053A1, “Novel 3-(substituted) -2- indolinones compounds and use thereof as inhibitors of protein kinase activity” (priority 1997, published 2002)

Target: T1, EGFR (Homo sapiens, UniProt P00533)
T1 construct: endogenous in cells; host or cells: A431 cells (lysate, captured with SUMO1 anti-EGFR antibody)
Test: Biochemical EGFR Assay
Parameters: concentration or dose not given beside the values
Procedure: This assay measures the in vitro kinase activity of EGFR using ELISA.
1. Corning 96-well Elisa plates (Corning Catalog No. 25805-96).
2. SUMO1 monoclonal anti-EGFR antibody (Biochemistry Lab, SUGEN, Inc.).
3. PBS (Dulbecco's Phosphate-Buffered Saline, Gibco Catalog No. 450-1300EB).
6. A431 cell lysate (Screening Lab, SUGEN, Inc.)
9. Adenosine-5′-triphosphate (ATP, from Equine muscle, Sigma Cat. No. A-5394).
Prepare a 1.0 mM solution in dH2O. This reagent should be made up immediately prior to use and kept on ice.
Prepare a 1.0 M stock solution in dH2O.
11. ATP/MnCl2 phosphorylation mix
This reagent should be prepared immediately before use and kept on ice
12. NUNC 96-well V bottom polypropylene plates (Applied Scientific Cat. No. AS-72092).
13. Ethylenediaminetetraacetic acid (EDTA)
Prepare 200 mM working solution in dH2O. Adjust to pH 8.0 with 10 N NaOH.
14. Rabbit polyclonal anti-phosphotyrosine serum (Biochemistry Lab, SUGEN, Inc.)
15. Goat anti-rabbit IgG peroxidase conjugate (Biosource Cat. No. ALI0404)
16. ABTS (2,2′-azino-bis(3-ethylbenzthiazoline-6-sulfonic acid), Sigma Cat. No. A-1888).
Mix first two ingredients in about 900 ml dH2O, adjust pH to 4.0 with phosphoric acid. Add ABTS, cover, let sit about 0.5 hr., filter. The solution should be kept in the dark at 4° C. until ready to use.
17. Hydrogen peroxide 30% solution (Fisher Cat. No. H325)
Mix 15 ml ABTS solution and 2.0 μl H2O2. Prepare 5 minutes before use.
1. Coat Corning 96 well ELISA plates with 0.5 μg SUMO1 in 100 μl PBS per well, store overnight at 4° C.
2. Remove unbound SUMO1 from wells by inverting plate to remove liquid. Wash 1× with dH2O. Pat the plate on a paper towel to remove excess liquid.
3. Add 150 μl of Blocking Buffer to each well. Incubate for 30 min. at room temperature with shaking.
4. Wash plate 3× with deionized water, then once with TBST. Pat plate on a paper towel to remove excess liquid and bubbles.
5. Dilute lysate in PBS (7 μg lysate/100 μl PBS)
6. Add 100 μl of diluted lysate to each well. Shake at room temperature for 60 min.
7. Wash plates as described in 4, above.
8. Add 120 μl TBS to ELISA plate containing captured EGFR.
9. Dilute test compound 1:10 in TBS in 96-well polypropylene plates (ie. 10 μl compound+90 μl TBS).
10. Add 13.5 μl diluted test compound to ELISA plate.
11. Incubate for 30 minutes while shaking at room temperature.
13. After 5 minutes, stop reaction by adding 16.5 μl of 200 mM EDTA (pH 8.0) to each well, shaking continuously. After the EDTA has been added, shake for 1 min.
14. Wash 4× with deionized water, twice with TBST.
15. Add 100 μl anti-phosphotyrosine (1:3000 dilution in TBST) per well. Incubate 30-45 min. at room temperature, with shaking.
16. Wash as described in 4, above.
17. Add 100 μl Biosource Goat anti-rabbit IgG peroxidase conjugate (1:2000 dilution in TBST) to each well. Incubate 30 min. at room temperature, with shaking.
18. Wash as described in 4, above.
19. Add 100 μl of ABTS/H2O2 solution to each well.
20. Incubate 5 to 10 minutes with shaking. Remove any bubbles.
21. If necessary stop reaction with the addition of 100 μl 0.2 M HCl per well.
22. Read assay on Dynatech MR7000 ELISA reader. Test Filter: 410 nM Reference Filter: 630 nM

T1 sequence (P00533 25-1210): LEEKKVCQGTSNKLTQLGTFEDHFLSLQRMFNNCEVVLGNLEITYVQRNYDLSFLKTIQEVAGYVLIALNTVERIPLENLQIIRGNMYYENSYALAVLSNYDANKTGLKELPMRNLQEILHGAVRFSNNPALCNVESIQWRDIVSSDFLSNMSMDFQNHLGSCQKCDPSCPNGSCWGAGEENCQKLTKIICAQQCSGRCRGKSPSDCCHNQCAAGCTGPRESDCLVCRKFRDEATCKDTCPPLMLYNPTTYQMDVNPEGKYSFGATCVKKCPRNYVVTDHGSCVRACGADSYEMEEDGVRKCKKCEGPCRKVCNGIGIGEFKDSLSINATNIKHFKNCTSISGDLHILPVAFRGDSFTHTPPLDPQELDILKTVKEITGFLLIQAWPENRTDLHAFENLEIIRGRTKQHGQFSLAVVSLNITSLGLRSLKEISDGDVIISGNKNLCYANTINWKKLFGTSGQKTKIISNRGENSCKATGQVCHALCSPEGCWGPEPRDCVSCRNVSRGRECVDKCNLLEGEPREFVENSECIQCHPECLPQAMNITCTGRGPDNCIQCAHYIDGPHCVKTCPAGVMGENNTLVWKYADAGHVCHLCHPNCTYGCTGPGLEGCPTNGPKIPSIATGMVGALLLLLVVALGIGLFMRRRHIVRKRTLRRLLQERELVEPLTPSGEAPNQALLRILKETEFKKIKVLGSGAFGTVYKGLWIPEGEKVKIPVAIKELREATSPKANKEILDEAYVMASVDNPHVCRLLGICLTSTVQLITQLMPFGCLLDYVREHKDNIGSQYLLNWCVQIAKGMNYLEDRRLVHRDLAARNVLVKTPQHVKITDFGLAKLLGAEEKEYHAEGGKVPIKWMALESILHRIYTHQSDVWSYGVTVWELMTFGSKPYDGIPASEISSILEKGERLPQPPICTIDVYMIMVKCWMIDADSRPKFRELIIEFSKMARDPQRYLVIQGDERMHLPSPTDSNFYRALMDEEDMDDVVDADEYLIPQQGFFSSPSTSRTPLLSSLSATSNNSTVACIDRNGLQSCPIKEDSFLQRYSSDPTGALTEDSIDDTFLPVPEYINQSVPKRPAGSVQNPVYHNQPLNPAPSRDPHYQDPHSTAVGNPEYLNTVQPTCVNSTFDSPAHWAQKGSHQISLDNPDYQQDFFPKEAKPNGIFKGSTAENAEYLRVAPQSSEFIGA

Structure (SMILES)	Biochem EGFR % Inhibition (P.167) [%]
O=C1Nc2ccc(I)cc2C1=Cc1cc(Cl)cc(Cl)c1O [10734/B03]	45.1
CNS(=O)(=O)c1ccc2c(c1)C(=Cc1cc(Cl)cc(Cl)c1O)C(=O)N2 [10734/D03]	19.6
Cc1c(Br)ccc2c1C(=Cc1cc(Cl)cc(Cl)c1O)C(=O)N2 [10734/C03]	48.6
Cc1c(Br)ccc2c1C(=Cc1cc(Br)cc(Br)c1O)C(=O)N2 [10734/C07]	41.0
O=C1Nc2ccc(S(=O)(=O)Nc3ccc(C(F)(F)F)cc3)cc2C1=Cc1cc(Br)cc(Br)c1O [10734/E07]	82.4
CNS(=O)(=O)c1ccc2c(c1)C(=Cc1ccc(Br)s1)C(=O)N2 [10734/D11]	14.6
CC(C)(C)c1ccc(C=C2C(=O)Nc3c(Br)cc(Br)cc32)cc1 [10734/A10]	27.8
O=C1Nc2ccc(I)cc2C1=Cc1ccc([N+](=O)[O-])cc1 [10734/B06]	54.0
COc1cc(Br)c(O)c(C=C2C(=O)Nc3c(Br)cc(Br)c(C)c32)c1 [10718/H03]	33.2
CCN(CC)c1ccc(C=C2C(=O)Nc3ccc(CCCl)cc32)c(O)c1 [10734/G05]	−0.3
O=C1Nc2ccc(S(=O)(=O)N3CCOCC3)cc2C1=Cc1cc(Br)cc(Br)c1O [10734/F07]	33.7
CC(C)(C)c1ccc(C=C2C(=O)Nc3ccc(CCCl)cc32)cc1 [10734/G10]	3.8
O=C1Nc2ccc(S(=O)(=O)Nc3ccc(C(F)(F)F)cc3)cc2C1=Cc1ccc(O)c(Br)c1 [10734/E09]	73.0
CCOc1cccc(C=C2C(=O)Nc3ccc(S(=O)(=O)N4CCOCC4)cc32)c1O [10734/F02]	0.7
O=C1Nc2ccc(S(=O)(=O)N3CCOCC3)cc2C1=Cc1cccc(F)c1O [10734/F08]	−23.6
CC(C)(C)c1ccc(C=C2C(=O)Nc3ccc(S(=O)(=O)N4CCOCC4)cc32)cc1 [10734/F10]	−8.3
CCN(CC)c1ccc(C=C2C(=O)Nc3ccc(S(=O)(=O)N4CCOCC4)cc32)c(O)c1 [10734/F05]	−15.6
O=C1Nc2ccc(S(=O)(=O)N3CCOCC3)cc2C1=Cc1ccc([N+](=O)[O-])cc1 [10734/F06]	−17.1
Cc1c(Br)cc(Br)c2c1C(=Cc1ccc(Cl)c([N+](=O)[O-])c1)C(=O)N2 [10718/H08]	−2.5
O=C1Nc2ccc(S(=O)(=O)Nc3ccc(C(F)(F)F)cc3)cc2C1=Cc1ccc([N+](=O)[O-])cc1 [10734/E06]	6.3

Structure (SMILES)	Biochem EGFR % Inhibition (P.167) [%]
O=C1Nc2ccc(I)cc2C1=Cc1cccc(F)c1O [10734/B08]	19.3
O=C1Nc2ccc(S(=O)(=O)N3CCOCC3)cc2C1=Cc1cc(Cl)cc(Cl)c1O [10734/F03]	24.8
O=C1Nc2c(Br)cc(Br)cc2C1=Cc1ccc(O)c(Br)c1 [10734/A09]	27.3
Cc1c(Br)ccc2c1C(=Cc1cccc(F)c1O)C(=O)N2 [10734/C08]	35.1
O=C1Nc2ccc(I)cc2C1=Cc1ccc(O)c(Br)c1 [10734/B09]	34.9
CCOC(=O)c1c(C)[nH]c(C=C2C(=O)Nc3c(Br)cc(Br)c(C)c32)c1C [10718/H02]	−22.5
Cc1c(Br)cc(Br)c2c1C(=Cc1ccc3ccccc3c1O)C(=O)N2 [10718/H04]	13.7
O=C1Nc2ccc(I)cc2C1=Cc1cc(Cl)ccc1O [10734/B04]	38.7
Cc1c(Br)ccc2c1C(=Cc1ccc(Br)s1)C(=O)N2 [10734/C11]	18.0
CCN(CC)c1ccc(C=C2C(=O)Nc3c(Br)cc(Br)cc32)c(O)c1 [10734/A05]	22.6
Cc1c(Br)ccc2c1C(=Cc1ccc([N+](=O)[O-])cc1)C(=O)N2 [10734/C06]	18.4
O=C1Nc2c(Br)cc(Br)cc2C1=Cc1cc(Cl)cc(Cl)c1O [10734/A03]	18.5
O=C1Nc2ccc(CCCl)cc2C1=Cc1cccc(F)c1O [10734/G08]	33.7
O=C1Nc2ccc(S(=O)(=O)Nc3ccc(C(F)(F)F)cc3)cc2C1=Cc1cccc(F)c1O [10734/E08]	24.2
CCOc1cccc(C=C2C(=O)Nc3c(Br)cc(Br)c(C)c32)c1O [10734/H02]	−11.9
O=C1Nc2ccc(I)cc2C1=Cc1cc(Br)cc(Br)c1O [10734/B07]	65.5
CCOC(=O)c1cc(C=C2C(=O)Nc3c(Br)cc(Br)c(C)c32)oc1C [10718/H06]	−5.1
O=C1Nc2c(Br)cc(Br)cc2C1=Cc1cc(Cl)ccc1O [10734/A04]	11.4
CCN(CC)c1ccc(C=C2C(=O)Nc3ccc(Br)c(C)c32)c(O)c1 [10734/C05]	9.3
O=C1Nc2ccc(I)cc2C1=Cc1ccc(Br)s1 [10734/B11]	50.9

Structure (SMILES)	Biochem EGFR % Inhibition (P.167) [%]
O=C1Nc2ccc(S(=O)(=O)Nc3ccc(C(F)(F)F)cc3)cc2C1=Cc1cc(Cl)cc(Cl)c1O [10734/E03]	55.0
O=C1Nc2ccc(CCCl)cc2C1=Cc1cc(Cl)ccc1O [10734/G04]	62.9
CNS(=O)(=O)c1ccc2c(c1)C(=Cc1cc(Br)cc(Br)c1O)C(=O)N2 [10734/D07]	51.1
O=C1Nc2c(Br)cc(Br)cc2C1=Cc1cccc(F)c1O [10734/A08]	6.8
O=C1Nc2c(Br)cc(Br)cc2C1=Cc1ccc(Br)s1 [10734/A11]	12.5
CCOc1cccc(C=C2C(=O)Nc3ccc(I)cc32)c1O [10734/B02]	−8.9
CCOc1cccc(C=C2C(=O)Nc3ccc(Br)c(C)c32)c1O [10734/C02]	−6.7
CCN(CC)c1ccc(C=C2C(=O)Nc3ccc(S(=O)(=O)Nc4ccc(C(F)(F)F)cc4)cc32)c(O)c1 [10734/E05]	7.9
CNS(=O)(=O)c1ccc2c(c1)C(=Cc1cc(Cl)ccc1O)C(=O)N2 [10734/D04]	−10.7
Cc1c(Br)cc(Br)c2c1C(=Cc1cc(Cl)cc(Cl)c1O)C(=O)N2 [10734/H03]	6.6
O=C1Nc2ccc(S(=O)(=O)Nc3ccc(C(F)(F)F)cc3)cc2C1=Cc1ccc(Br)s1 [10734/E11]	−8.0
O=C1Nc2ccc(CCCl)cc2C1=Cc1cc(Br)cc(Br)c1O [10734/G07]	51.1
CCN(CC)c1ccc(C=C2C(=O)Nc3ccc(S(=O)(=O)NC)cc32)c(O)c1 [10734/D05]	−9.6
CCOc1cccc(C=C2C(=O)Nc3ccc(CCCl)cc32)c1O [10734/G02]	3.4
CNS(=O)(=O)c1ccc2c(c1)C(=Cc1ccc(O)c(Br)c1)C(=O)N2 [10734/D09]	21.0
CNS(=O)(=O)c1ccc2c(c1)C(=Cc1ccc([N+](=O)[O-])cc1)C(=O)N2 [10734/D06]	1.3
CCOc1cccc(C=C2C(=O)Nc3ccc(S(=O)(=O)Nc4ccc(C(F)(F)F)cc4)cc32)c1O [10734/E02]	−10.8
Cc1c(Br)cc(Br)c2c1C(=Cc1cc(Cl)ccc1O)C(=O)N2 [10734/H04]	5.9
CCOc1cccc(C=C2C(=O)Nc3c(Br)cc(Br)cc32)c1O [10734/A02]	0.0
